The record followed here is patent US5407942A, “Biphenylmethyl-substituted pyridones” (Bayer Aktiengesellschaft, priority 1992, dated 1995).

Converted amounts (≈) assume the structure as drawn.

One assay concerns the target T1, angiotensin II receptor (Bos taurus, UniProt P25104).
T1 construct: partially purified membrane fractions of bovine AGC using radioactive angiotensin II; from tissue; host or cells: bovine adrenal gland cortex, partially purified membrane fractions
T1 sequence (P25104 1-359): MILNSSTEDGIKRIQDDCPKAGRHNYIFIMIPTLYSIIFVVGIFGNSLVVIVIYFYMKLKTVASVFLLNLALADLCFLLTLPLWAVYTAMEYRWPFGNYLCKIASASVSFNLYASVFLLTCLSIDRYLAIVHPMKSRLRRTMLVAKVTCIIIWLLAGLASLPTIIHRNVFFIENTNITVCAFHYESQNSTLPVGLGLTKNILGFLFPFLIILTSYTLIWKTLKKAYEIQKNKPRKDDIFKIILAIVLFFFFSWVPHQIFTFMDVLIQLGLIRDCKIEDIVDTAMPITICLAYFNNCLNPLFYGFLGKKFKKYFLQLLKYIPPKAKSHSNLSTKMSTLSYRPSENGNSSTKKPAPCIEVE
Briefly: Interaction with the angiotensin II receptor in membrane fractions of the adrenal gland cortex (bovine), 3H-angiotensin II binding. To be noted: 3H-angiotensin II 3-5 nM, 60 min at room temperature, read-out: Ki, specific binding of 3H-angiotensin II. The text has this: Interaction of the compounds according to the invention with the angiotensin II receptor in membrane fractions of the adrenal gland cortex (bovine)
Bovine adrenal gland cortices (AGC), which have been freshly removed and carefully freed from gland medulla, are comminuted in sucrose solution (0.32M) with the aid of an Ultra-Turrax (Janke & Kunkel, Staufen i.B.) to give a coarse membrane homogenate and partially purified in two centrifugation steps to give membrane fractions. The receptor binding investigations are carried out on partially purified membrane fractions of bovine AGC using radioactive angiotensin II in an assay volume of 0.25 ml, which specifically contains the partially purified membranes (50-80 μg), ^3 H-angiotensin II (3-5 nM), test buffer solution (50 mM Tris, pH 7.2, 5 mM MgCl2) and the substances to be investigated. After an incubation time of 60 min at room temperature, the unbound radioactivity of the samples is separated by means of moistened glass fibre filters (Whatman GF/C) and the bound radioactivity is measured […] in a scintillation cocktail after washing the protein with ice-cold buffer solution (50 mM Tris/HCl, pH 7.4, 5% PEG 6000). The analysis of the raw data was carried out using computer programs to give Ki or IC50 values (Ki : IC50 values corrected for the radioactivity used; IC50 values: concentration at which the substance to be investigated causes a 50% inhibition of the specific binding of the radioligand).

Assay [1] deals with isolated rabbit aorta rings; contraction induced by angiotensin II (AII). In words: Inhibition of vascular contraction in isolated rabbit aorta rings induced by angiotensin II (AII). It counts as cell-based. Particulars: Oryctolagus cuniculus; isolated rabbit aorta rings in vitro, 37° C.; based on 3rd = submaximal agonist concentration; read-out: IC50 against contractions induced by AII. How it is done:
Investigation of the inhibition of the contraction induced by agonists
Rabbits of either sex are stunned by a blow to the back of the head and bled out, or in some cases anaesthetised with Nembutal (about 60-80 mg/kg i.v.) and sacrificed by opening the thorax. The thorax aorta is removed, freed from adhering connective tissue, divided into ring segments 1.5 mm wide and individually transferred under an initial loading of about 3.5 g to 10 ml organ baths containing Krebs-Henseleit nutrient solution, which is temperature-controlled at 37° C. and aerated with 95% O2 /5% CO2, of the following composition: 119 mmol/l of NaCl; 2.5 mmol/l of CaCl2 ×2H2 O; 1.2 mmol/l of KH2 PO4; 10 mmol/l of glucose; 4.8 mmol/l of KCl; 1.4 mmol/l of MgSO4 ×7 H2 O and 25 mmol/l of NaHCO3.
The contractions are detected isometrically by Statham UC2 cells by means of bridge amplifiers (ifd Mulheim or DSM Aalen) and digitalised and assessed by means of A/D converters (System 570, Keithley Munich). Agonist dose response curves (DRC) are plotted hourly. With each DRC, 3 or 4 individual concentrations are applied to the baths at a 4 min interval. After the end of the DRC and subsequent washing-out cycles (16 times in each case about 5 sec/min with the abovementioned nutrient solution), a 28-minute rest or incubation phase follows, during which the contractions as a rule reach the starting value again.
The height of the 3rd DRC, in a normal case, is used as a reference variable for the assessment of the test substance to be investigated in further runs, which is applied to the baths in the following DRCs in increasing doses in each case at the start of the incubation period. Each aorta ring is in this case stimulated for the whole day, always with the same agonist.
Agonists and their standard concentrations (application
For the calculation of the IC50 (concentration at which the substance to be investigated causes a 50% inhibition), the effect is in each case based on the 3rd=submaximal agonist concentration.

Another assay concerns smooth muscle cells. Briefly: Inhibition of the proliferation of smooth muscle cells (3H-thymidine incorporation). The class given is cell-based, rats or pigs. Particulars: 10^-6 M, stimulated with AII, serum or other factors. How it is done:
Investigation of the inhibition of the proliferation of smooth muscle cells by the compounds according to the invention
To determine the antiproliferative action of the compounds, smooth muscle cells are used which are obtained from aortas of rats or pigs by the media explant technique [R. Ross, J. Cell. Biol. 50, 172, 1971]. The cells are inoculated into suitable culture dishes, as a rule 24-hole plates, and cultured at 37° C. for 2-3 days in medium with addition of serum, 2 mmol L-glutamine and 15 mmol HEPES, pH 7.4 in 5% CO2. The cells are then synchronised by withdrawal of serum for 2-3 days and then stimulated into growth with AII, serum or other factors. Test compounds are simultaneously added. […]
In general terms: Incorporation of labelled thymidine or its analogues reports DNA synthesis.

The Ki is a measure of affinity in units of concentration, obtained from inhibition or displacement. A word on the IC50: it is the concentration that inhibits the measured activity by half. `CCCCc1cc2ccccc2c(=O)n1Cc1ccc(-c2ccccc2-c2nnn[nH]2)cc1` [Example 2, 3-Butyl-2-{[2'-(tetrazol-5-yl)-biphenyl-4-yl]methyl}-isoquinolin-1(2H)-one]: at angiotensin II receptor, the Ki worked out at 42 nM. Moreover, the IC50 in assay [1] is 0.23 µg/mL (≈ 0.528 µM).
For `CCc1cc2ccccc2c(=O)n1Cc1ccc(-c2ccccc2-c2nnn[nH]2)cc1` [Example 4, 3-Ethyl-2-{[2'-(tetrazol-5-yl)-biphenyl-4-yl]methyl}-isoquinolin-1(2H)-one] the same measures were 750 nM and 0.84 µg/mL (≈ 2.06 µM).
The term inhibition denotes the relative decrease from the control value, in per cent. A higher inhibition goes with a response far below the control. `O=c1c2ccccc2cc(-c2ccccc2)n1Cc1ccc(-c2ccccc2-c2nnn[nH]2)cc1` [Example 6, 3-Phenyl-2-{[2'-(tetrazol-5-yl)-biphenyl-4-yl]methyl}-isoquinolin-1(2H)-one] displayed an inhibition at 1 µM with smooth muscle cells of 70%. Further, the Ki on angiotensin II receptor stood at 2000 nM. Besides, the half-maximal inhibitory concentration (IC50) in assay [1] is above 1 µg/mL.
